Data published in PubChem BioAssay (NCI).
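Dose response: 5 concentrations. Exposure: 48 h. Format: 96-well plates. Endpoint: linear interpolation; highest concentration if not reached. Abbreviation: GI50, concentration required for 50% inhibition of growth. TGI denotes the concentration required for complete inhibition of growth.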

Columns and labels:
Experiment in all cases: NCI anticancer screen, dose series, 48 h
[1] = tested on: 786-0 renal
[2] = tested on: A498 renal
[3] = tested on: A549 NSCLC
[4] = tested on: ACHN renal
[5] = tested on: BT-549 breast
[6] = tested on: CAKI-1 renal
[7] = tested on: CCRF-CEM leukemia
[8] = tested on: COLO 205 colon
[9] = tested on: DU-145 prostate
[10] = tested on: EKVX NSCLC
[11] = tested on: HCC-2998 colon
[12] = tested on: HCT-116 colon
[13] = tested on: HCT-15 colon
[14] = tested on: HL-60(TB) leukemia
[15] = tested on: HOP-62 NSCLC
[16] = tested on: HOP-92 NSCLC
[17] = tested on: HS 578T breast
[18] = tested on: HT29 colon
[19] = tested on: IGROV1 ovarian
[20] = tested on: K-562 leukemia
[21] = tested on: KM12 colon
[22] = tested on: LOX IMVI melanoma
[23] = tested on: M14 melanoma
[24] = tested on: MALME-3M melanoma
[25] = tested on: MCF7 breast
[26] = tested on: MDA-MB-231 breast
[27] = tested on: MDA-MB-435
[28] = tested on: MDA-MB-468 breast
[29] = tested on: MOLT-4 leukemia
[30] = tested on: NCI-H226 lung
[31] = tested on: NCI-H23 lung
[32] = tested on: NCI-H460 lung
[33] = tested on: NCI-H522 lung
[34] = tested on: NCI/ADR-RES ovarian
[35] = tested on: OVCAR-3 ovarian
[36] = tested on: OVCAR-4 ovarian
[37] = tested on: OVCAR-5 ovarian
[38] = tested on: OVCAR-8 ovarian
[39] = tested on: PC-3 prostate
[40] = tested on: RPMI-8226 leukemia
[41] = tested on: SF-268 CNS
[42] = tested on: SF-295 CNS
[43] = tested on: SF-539 CNS
[44] = tested on: SK-MEL-2 melanoma
[45] = tested on: SK-MEL-28 melanoma
[46] = tested on: SK-MEL-5 melanoma
[47] = tested on: SK-OV-3 ovarian
[48] = tested on: SN12C renal
[49] = tested on: SNB-19 CNS
[50] = tested on: SNB-75 CNS
[51] = tested on: SR leukemia
[52] = tested on: SW-620 colon
[53] = tested on: T-47D breast
[54] = tested on: TK-10 renal
[55] = tested on: U251 CNS
[56] = tested on: UACC-257 melanoma
[57] = tested on: UACC-62 melanoma
[58] = tested on: UO-31 renal

C#CCCCN(CCNc1ccnc2cc(Cl)ccc12)C(=O)CCC(=O)O[C@@H]1O[C@@H]2OC3(C)CC[C@H]4[C@H](C)CC[C@@H]([C@H]1C)[C@@]24OO3
GI50 [1]: 5.67 µM | TGI [1]: > 11.5 µM | GI50 [2]: > 11.5 µM | TGI [2]: > 11.5 µM | GI50 [3]: 7.37 µM | TGI [3]: > 11.5 µM | GI50 [4]: 2.18 µM | TGI [4]: > 11.5 µM | GI50 [5]: 1.27 µM | TGI [5]: > 11.5 µM | GI50 [6]: 8.21 µM | TGI [6]: > 11.5 µM | GI50 [7]: 0.697 µM | TGI [7]: > 11.5 µM | GI50 [8]: 1.39 µM | TGI [8]: > 11.5 µM | GI50 [9]: 8.95 µM | TGI [9]: > 11.5 µM | GI50 [10]: 1.03 µM | TGI [10]: > 11.5 µM | GI50 [11]: 2.72 µM | TGI [11]: > 11.5 µM | GI50 [12]: 0.554 µM | TGI [12]: > 11.5 µM | GI50 [13]: 0.337 µM | TGI [13]: > 11.5 µM | GI50 [14]: 0.364 µM | TGI [14]: 1.82 µM | GI50 [15]: > 11.5 µM | TGI [15]: > 11.5 µM | GI50 [16]: 0.581 µM | TGI [16]: 6.74 µM | GI50 [17]: 1.83 µM | TGI [17]: > 11.5 µM | GI50 [18]: 0.701 µM | TGI [18]: > 11.5 µM | GI50 [19]: 3.01 µM | TGI [19]: > 11.5 µM | GI50 [20]: 0.448 µM | TGI [20]: > 11.5 µM | GI50 [21]: 0.572 µM | TGI [21]: > 11.5 µM | GI50 [22]: 0.676 µM | TGI [22]: 2.82 µM | GI50 [23]: 4.86 µM | TGI [23]: > 11.5 µM | GI50 [24]: 2.56 µM | TGI [24]: > 11.5 µM | GI50 [25]: 0.805 µM | TGI [25]: > 11.5 µM | GI50 [26]: 9.5 µM | TGI [26]: > 11.5 µM | GI50 [27]: 0.772 µM | TGI [27]: > 11.5 µM | GI50 [28]: 1.74 µM | TGI [28]: 5.49 µM | GI50 [29]: 0.527 µM | TGI [29]: 5.82 µM | GI50 [30]: 3.76 µM | TGI [30]: > 11.5 µM | GI50 [31]: 1.08 µM | TGI [31]: > 11.5 µM | GI50 [32]: 5.09 µM | TGI [32]: > 11.5 µM | GI50 [33]: 0.788 µM | TGI [33]: > 11.5 µM | GI50 [34]: 1.83 µM | TGI [34]: > 11.5 µM | GI50 [35]: 0.876 µM | TGI [35]: > 11.5 µM | GI50 [36]: 1.39 µM | TGI [36]: > 11.5 µM | GI50 [37]: 0.974 µM | TGI [37]: > 11.5 µM | GI50 [38]: 1.04 µM | TGI [38]: > 11.5 µM | GI50 [39]: 0.194 µM | TGI [39]: > 11.5 µM | GI50 [40]: 0.399 µM | TGI [40]: > 11.5 µM | GI50 [41]: 7.45 µM | TGI [41]: > 11.5 µM | GI50 [42]: 1.87 µM | TGI [42]: > 11.5 µM | GI50 [43]: 3.99 µM | TGI [43]: > 11.5 µM | GI50 [44]: 4.93 µM | TGI [44]: > 11.5 µM | GI50 [45]: 2.64 µM | TGI [45]: > 11.5 µM | GI50 [46]: 1.18 µM | TGI [46]: 8.98 µM | GI50 [47]: > 11.5 µM | TGI [47]: > 11.5 µM | GI50 [48]: 3.06 µM | TGI [48]: > 11.5 µM | GI50 [49]: 7.16 µM | TGI [49]: > 11.5 µM | GI50 [50]: > 11.5 µM | TGI [50]: > 11.5 µM | GI50 [51]: 0.475 µM | TGI [51]: 9.37 µM | GI50 [52]: 0.643 µM | TGI [52]: > 11.5 µM | GI50 [53]: 0.402 µM | TGI [53]: > 11.5 µM | GI50 [54]: 8.12 µM | TGI [54]: > 11.5 µM | GI50 [55]: 2.73 µM | TGI [55]: > 11.5 µM | GI50 [56]: 2.3 µM | TGI [56]: > 11.5 µM | GI50 [57]: 0.878 µM | TGI [57]: > 11.5 µM | GI50 [58]: 1.19 µM | TGI [58]: > 11.5 µM
